Test results taken from ChEMBL document CHEMBL1201862, “PubChem BioAssay data set” (2004).
Active and inactive are the calls of the source.

Tests used:
[1] = biological target: T1, Small ubiquitin-related modifier 1 (Homo sapiens, UniProt P63165); experiment: inhibitors of SUMO1 partner interactions, dose response, biochemical, FRET (AID 624383); format: functional; conditions: read-out: IC50_Mean
[2] = growth suppression of PTEN-null colon cells, dose response, cell-based, HCT116 PTEN knockout (AID 1047); format: functional;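 also: HCT116 colon tumor cells with PTEN knocked out; cells exposed to compound for 60 hours before readout; potency for loss of cell viability measured by luminescence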
[3] = biological target: Eukaryotic translation initiation factor 4E (Mus musculus, UniProt P63073); experiment: eIF4E–eIF4G protein interaction inhibitors, dose response, biochemical, TR-FRET (AID 855); format: functional;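 also: potency for disrupting eIF4E binding to eIF4GI seen as loss of FRET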
Chain of Eukaryotic translation initiation factor 4E (P63073 whole entry): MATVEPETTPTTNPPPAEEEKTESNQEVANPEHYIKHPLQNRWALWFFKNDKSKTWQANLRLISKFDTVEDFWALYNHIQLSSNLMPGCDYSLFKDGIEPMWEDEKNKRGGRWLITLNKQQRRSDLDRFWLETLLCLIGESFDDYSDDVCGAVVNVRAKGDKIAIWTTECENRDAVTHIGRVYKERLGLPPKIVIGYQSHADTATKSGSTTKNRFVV

[4] = growth suppression of beta-catenin-knockout colon cells, dose response, cell-based, HCT116, human colon tumor (AID 1045); format: functional;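 also: HCT116 colon tumor cells with beta catenin knocked out; cells exposed to compound for 60 hours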
[5] = biological target: Heat shock protein HSP 90-alpha (Homo sapiens, UniProt P07900); format: functional, organism-based
[6] = biological target: T2, DNA repair protein RAD52 homolog (Homo sapiens, UniProt P43351); format: functional, biochemical
T2 sequence (P43351 whole entry): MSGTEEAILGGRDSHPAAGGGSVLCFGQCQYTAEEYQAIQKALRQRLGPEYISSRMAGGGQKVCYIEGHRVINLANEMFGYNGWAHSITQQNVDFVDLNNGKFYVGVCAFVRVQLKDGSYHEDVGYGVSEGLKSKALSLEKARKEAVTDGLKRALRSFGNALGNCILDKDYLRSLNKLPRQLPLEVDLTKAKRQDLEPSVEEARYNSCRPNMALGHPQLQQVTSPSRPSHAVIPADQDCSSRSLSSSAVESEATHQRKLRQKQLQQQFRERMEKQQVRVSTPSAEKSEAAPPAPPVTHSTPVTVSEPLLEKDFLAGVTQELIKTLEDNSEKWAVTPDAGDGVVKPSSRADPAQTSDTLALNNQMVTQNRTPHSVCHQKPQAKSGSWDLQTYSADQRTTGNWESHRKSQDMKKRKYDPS

[7] = biological target: Induced myeloid leukemia cell differentiation protein Mcl-1 (Homo sapiens, UniProt Q07820); format: functional
Chain of Induced myeloid leukemia cell differentiation protein Mcl-1 (Q07820 whole entry): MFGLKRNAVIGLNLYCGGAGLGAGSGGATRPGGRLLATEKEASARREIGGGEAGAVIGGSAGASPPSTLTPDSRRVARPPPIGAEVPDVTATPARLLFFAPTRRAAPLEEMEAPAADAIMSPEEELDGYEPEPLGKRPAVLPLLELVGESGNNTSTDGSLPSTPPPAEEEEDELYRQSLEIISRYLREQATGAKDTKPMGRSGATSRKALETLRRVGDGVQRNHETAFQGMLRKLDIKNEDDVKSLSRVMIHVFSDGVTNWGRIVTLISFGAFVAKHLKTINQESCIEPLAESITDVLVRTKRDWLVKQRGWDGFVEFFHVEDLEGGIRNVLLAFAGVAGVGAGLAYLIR

[8] = biological target: T1, Small ubiquitin-related modifier 1; experiment: inhibitors of SUMO1 peptide binding, dose response, biochemical, fluorescence polarization, uHTS hits (AID 624382); format: functional; conditions: read-out: IC50_Mean
[9] = biological target: Intestinal-type alkaline phosphatase (Homo sapiens, UniProt P09923); experiment: Dose Response confirmation of uHTS hits from a small molecule inhibitors of human intestinal alkaline phosphatase via a luminescent assay. [Related pubchem assays (depositor defined):AID2544, AID2574]; format: functional
Chain of Intestinal-type alkaline phosphatase (P09923 whole entry): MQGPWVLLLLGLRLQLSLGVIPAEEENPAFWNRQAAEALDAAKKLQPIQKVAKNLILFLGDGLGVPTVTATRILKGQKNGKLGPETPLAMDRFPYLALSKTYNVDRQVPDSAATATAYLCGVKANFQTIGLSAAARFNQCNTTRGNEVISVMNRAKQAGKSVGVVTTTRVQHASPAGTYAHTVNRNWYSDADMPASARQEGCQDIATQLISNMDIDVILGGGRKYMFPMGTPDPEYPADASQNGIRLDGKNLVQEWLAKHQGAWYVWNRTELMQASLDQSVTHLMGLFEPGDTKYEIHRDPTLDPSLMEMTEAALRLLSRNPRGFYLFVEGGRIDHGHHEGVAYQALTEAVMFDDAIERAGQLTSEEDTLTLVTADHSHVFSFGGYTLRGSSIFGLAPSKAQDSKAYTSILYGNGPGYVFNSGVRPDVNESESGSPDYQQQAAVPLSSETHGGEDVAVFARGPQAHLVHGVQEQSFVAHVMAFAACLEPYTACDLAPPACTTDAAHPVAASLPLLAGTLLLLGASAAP

[10] = biological target: T3, Replicative DNA helicase DnaB (Mycobacterium tuberculosis, UniProt P9WMR3); experiment: DnaB intein splicing inhibitors, dose response, biochemical, cell-free fluorescence (AID 449749); format: functional
T3 sequence (P9WMR3 whole entry): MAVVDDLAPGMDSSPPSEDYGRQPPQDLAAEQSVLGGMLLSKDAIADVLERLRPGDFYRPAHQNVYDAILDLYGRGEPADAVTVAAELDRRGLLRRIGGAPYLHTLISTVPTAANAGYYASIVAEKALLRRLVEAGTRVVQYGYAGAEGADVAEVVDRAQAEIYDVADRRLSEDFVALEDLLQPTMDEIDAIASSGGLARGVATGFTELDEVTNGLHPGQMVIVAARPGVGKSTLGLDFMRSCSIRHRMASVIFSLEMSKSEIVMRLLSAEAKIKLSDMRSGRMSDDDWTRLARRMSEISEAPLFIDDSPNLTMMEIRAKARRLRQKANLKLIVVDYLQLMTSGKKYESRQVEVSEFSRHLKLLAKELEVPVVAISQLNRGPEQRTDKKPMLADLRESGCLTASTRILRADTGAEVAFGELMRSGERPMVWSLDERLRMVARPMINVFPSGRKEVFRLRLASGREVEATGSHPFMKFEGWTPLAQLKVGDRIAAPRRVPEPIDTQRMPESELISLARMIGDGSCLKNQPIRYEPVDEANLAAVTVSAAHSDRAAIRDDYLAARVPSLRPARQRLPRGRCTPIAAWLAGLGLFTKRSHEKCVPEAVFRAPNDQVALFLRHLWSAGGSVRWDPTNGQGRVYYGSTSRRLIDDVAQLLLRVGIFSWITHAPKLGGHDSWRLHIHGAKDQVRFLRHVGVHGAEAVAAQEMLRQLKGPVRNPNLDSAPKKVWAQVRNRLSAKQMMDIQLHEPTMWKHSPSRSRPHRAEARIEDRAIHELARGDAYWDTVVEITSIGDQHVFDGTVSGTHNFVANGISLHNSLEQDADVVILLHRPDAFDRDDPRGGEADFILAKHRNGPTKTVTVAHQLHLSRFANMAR

Protein RecA = biological target: T4, Protein RecA (Mycobacterium tuberculosis, UniProt P9WHJ3); experiment: Fluorescence Cell-Free Homogeneous Dose Retest to Identify Inhibitors of RecA-Intein Splicing Activity. [Related pubchem assays (depositor defined):AID2097, AID2223, AID489010, AID492950]; format: functional
T4 sequence (P9WHJ3 whole entry): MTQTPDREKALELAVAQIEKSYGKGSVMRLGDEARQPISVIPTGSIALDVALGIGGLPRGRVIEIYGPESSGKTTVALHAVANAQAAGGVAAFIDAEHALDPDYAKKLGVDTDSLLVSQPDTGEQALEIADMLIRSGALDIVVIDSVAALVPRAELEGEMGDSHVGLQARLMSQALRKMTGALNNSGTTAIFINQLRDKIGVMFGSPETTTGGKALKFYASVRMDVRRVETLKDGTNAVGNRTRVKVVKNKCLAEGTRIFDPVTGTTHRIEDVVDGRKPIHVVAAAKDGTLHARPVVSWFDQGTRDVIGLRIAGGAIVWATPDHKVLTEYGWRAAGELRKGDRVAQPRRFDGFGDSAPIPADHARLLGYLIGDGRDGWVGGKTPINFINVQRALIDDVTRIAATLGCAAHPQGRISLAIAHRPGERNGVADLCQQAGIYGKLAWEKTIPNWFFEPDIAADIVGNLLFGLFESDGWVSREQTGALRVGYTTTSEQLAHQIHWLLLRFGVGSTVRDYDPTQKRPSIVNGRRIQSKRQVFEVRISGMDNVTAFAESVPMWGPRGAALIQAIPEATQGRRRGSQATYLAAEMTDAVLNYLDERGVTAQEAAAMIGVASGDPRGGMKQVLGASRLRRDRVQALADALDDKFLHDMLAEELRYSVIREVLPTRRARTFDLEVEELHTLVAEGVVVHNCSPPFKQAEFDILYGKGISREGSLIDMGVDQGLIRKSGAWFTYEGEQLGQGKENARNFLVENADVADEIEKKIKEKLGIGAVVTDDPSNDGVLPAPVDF

X-box-binding protein 1 = X-box-binding protein 1 (Homo sapiens, UniProt P17861); format: functional, Cricetulus griseus;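 also: confirmatory dose-response counter-screen serving a CHOP assay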
Chain of X-box-binding protein 1 (P17861 whole entry): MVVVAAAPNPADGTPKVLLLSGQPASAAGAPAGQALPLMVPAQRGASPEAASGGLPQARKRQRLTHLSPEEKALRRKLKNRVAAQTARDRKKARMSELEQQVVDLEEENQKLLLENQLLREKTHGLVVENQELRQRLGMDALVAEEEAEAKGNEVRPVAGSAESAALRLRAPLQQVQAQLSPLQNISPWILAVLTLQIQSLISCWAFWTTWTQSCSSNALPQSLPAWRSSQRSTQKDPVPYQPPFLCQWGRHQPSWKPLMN

[11] = biological target: Phosphoethanolamine/phosphocholine phosphatase (Homo sapiens, UniProt Q8TCT1); experiment: SAR assay for compounds that inhibit PHOSPHO1. [Related pubchem assays (depositor defined):AID1545, AID1565, AID1574]
Chain of Phosphoethanolamine/phosphocholine phosphatase (Q8TCT1 whole entry): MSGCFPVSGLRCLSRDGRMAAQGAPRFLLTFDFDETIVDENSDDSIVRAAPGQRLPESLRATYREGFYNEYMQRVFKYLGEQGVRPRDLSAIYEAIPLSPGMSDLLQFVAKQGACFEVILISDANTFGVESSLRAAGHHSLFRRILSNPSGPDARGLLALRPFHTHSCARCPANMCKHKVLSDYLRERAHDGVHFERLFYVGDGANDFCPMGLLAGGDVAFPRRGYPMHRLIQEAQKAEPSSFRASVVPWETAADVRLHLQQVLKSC

[12] = biological target: T5, Mannose-6-phosphate isomerase (Homo sapiens, UniProt P34949); experiment: PMI enzyme inhibitors, confirmation, biochemical, fluorescence intensity (AID 1535)
T5 sequence (P34949 whole entry): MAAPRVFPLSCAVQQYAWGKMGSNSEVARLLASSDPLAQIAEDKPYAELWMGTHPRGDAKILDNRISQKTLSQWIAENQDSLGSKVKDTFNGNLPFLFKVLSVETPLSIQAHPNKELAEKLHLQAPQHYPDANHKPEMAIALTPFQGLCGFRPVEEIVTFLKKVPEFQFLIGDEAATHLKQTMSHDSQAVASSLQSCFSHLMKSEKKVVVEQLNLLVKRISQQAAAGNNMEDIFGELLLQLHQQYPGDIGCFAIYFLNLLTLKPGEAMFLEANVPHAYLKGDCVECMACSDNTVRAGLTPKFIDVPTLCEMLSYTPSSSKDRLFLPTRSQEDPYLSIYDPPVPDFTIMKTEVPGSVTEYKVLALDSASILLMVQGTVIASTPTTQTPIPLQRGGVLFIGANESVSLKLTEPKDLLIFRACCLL

Phosphomannomutase 2 = biological target: T6, Phosphomannomutase 2 (Homo sapiens, UniProt O15305); experiment: Counter screen SAR assay for PMM2 inhibitors via a fluorescence intensity assay. [Related pubchem assays (depositor defined):AID1545, AID1574]
T6 sequence (O15305 whole entry): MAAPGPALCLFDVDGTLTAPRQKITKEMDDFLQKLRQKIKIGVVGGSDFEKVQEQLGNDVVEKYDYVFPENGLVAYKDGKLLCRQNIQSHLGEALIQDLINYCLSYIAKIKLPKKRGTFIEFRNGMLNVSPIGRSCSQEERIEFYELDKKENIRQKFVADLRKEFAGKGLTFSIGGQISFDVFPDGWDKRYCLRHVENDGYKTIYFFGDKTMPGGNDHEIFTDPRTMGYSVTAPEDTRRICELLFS

[13] = test system: Streptococcus sp. 'group A'; experiment: growth inhibition of control SK(-) GAS strain, dose response, counter-screen for streptokinase expression inhibitor project, luminescence, kanamycin, BacTiterGlo, confirmation (AID 1900); format: functional, organism-based
[14] = biological target: T5, Mannose-6-phosphate isomerase; experiment: inhibitors of human PMI, primary screen, biochemical, fluorescence intensity, coupled assay (AID 1209)
[15] = biological target: DNA dC->dU-editing enzyme APOBEC-3A (Homo sapiens, UniProt P31941); experiment: APOBEC3A DNA deaminase inhibitors, dose response, biochemical (AID 504722); format: functional
Chain of DNA dC->dU-editing enzyme APOBEC-3A (P31941 whole entry): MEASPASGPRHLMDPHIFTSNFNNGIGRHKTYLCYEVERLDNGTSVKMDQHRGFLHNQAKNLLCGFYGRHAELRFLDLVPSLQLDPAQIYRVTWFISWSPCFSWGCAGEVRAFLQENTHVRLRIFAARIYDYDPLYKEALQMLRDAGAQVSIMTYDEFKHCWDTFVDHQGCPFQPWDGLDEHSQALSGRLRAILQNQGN

[16] = biological target: T7, Polyadenylate-binding protein 1 (Homo sapiens, UniProt P11940); experiment: PABP1 MLLE–PAM2 binding inhibitor potency, dose response, biochemical, fluorescence polarization, FITC-PAM2 peptide (AID 602259); format: functional; conditions: read-out: IC50_Mean
T7 sequence (P11940 whole entry): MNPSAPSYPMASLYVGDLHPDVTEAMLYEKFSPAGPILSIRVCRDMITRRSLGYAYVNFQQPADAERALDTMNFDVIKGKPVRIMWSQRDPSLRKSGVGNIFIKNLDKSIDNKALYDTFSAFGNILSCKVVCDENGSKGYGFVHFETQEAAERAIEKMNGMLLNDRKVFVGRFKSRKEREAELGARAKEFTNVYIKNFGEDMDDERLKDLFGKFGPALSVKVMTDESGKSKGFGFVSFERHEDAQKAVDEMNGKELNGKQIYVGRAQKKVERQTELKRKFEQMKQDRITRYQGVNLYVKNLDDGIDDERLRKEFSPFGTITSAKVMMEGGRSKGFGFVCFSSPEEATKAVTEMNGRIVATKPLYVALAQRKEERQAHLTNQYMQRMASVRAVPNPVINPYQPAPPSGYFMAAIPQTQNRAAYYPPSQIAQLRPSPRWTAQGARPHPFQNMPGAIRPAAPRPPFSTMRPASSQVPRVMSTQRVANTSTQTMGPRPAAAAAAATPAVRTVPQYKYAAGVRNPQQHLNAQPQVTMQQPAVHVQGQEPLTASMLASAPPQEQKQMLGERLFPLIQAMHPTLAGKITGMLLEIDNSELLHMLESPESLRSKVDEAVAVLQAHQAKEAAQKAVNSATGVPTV

[17] = biological target: DNA dC->dU-editing enzyme APOBEC-3G (Homo sapiens, UniProt Q9HC16); experiment: Dose Response confirmation of small molecule APOBEC3G DNA Deaminase Inhibitors via a fluorescence-based single-stranded DNA deaminase assay. [Related pubchem assays (depositor defined):AID493012, AID493028]; format: functional
Chain of DNA dC->dU-editing enzyme APOBEC-3G (Q9HC16 whole entry): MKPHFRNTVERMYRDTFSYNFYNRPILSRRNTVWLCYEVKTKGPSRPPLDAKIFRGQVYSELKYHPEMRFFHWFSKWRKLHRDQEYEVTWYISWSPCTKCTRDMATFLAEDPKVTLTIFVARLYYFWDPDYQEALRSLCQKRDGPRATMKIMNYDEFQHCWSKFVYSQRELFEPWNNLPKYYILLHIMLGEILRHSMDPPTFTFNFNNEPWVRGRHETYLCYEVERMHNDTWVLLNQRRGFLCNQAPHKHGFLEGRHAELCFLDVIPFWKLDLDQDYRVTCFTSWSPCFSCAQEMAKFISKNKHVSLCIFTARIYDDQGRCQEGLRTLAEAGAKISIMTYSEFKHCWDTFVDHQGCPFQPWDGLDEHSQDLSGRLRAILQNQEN

[18] = biological target: Glucose-6-phosphate 1-dehydrogenase (Homo sapiens, UniProt P11413); experiment: human G6PD enzyme inhibitors, dose response, selectivity assay for P. falciparum G6PD inhibitor project, biochemical, fluorescence (AID 504792); format: functional
Chain of Glucose-6-phosphate 1-dehydrogenase (P11413 whole entry): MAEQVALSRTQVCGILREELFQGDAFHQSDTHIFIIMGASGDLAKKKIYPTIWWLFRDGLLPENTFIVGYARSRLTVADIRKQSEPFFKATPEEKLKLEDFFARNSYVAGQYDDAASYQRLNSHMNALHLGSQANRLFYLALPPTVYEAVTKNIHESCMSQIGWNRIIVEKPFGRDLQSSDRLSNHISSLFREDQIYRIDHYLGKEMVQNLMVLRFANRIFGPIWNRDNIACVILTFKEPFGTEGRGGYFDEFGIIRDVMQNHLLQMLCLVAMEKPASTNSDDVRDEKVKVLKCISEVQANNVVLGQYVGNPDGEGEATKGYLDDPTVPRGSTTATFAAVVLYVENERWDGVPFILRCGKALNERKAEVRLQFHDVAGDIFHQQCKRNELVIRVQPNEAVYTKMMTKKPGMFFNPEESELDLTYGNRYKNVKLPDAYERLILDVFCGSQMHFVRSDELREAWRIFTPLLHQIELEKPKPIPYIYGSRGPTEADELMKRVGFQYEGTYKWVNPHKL

Streptococcus = experiment: Group A Streptococcus viability loss, dose response, counter-screen for streptokinase expression inhibitor project, luminescence, BacTiterGlo (AID 1915); format: functional, organism-based;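 also: potency for reduction of bacterial viability or growth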
Streptokinase A = biological target: T8, Streptokinase A (Streptococcus pyogenes serotype M1, UniProt P10520); experiment: S. pyogenes streptokinase expression inhibitors, potency, dose response, plasminogen activation absorbance, OD405 (AID 1914); format: functional, Streptococcus pyogenes M1 GAS;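 also: secreted streptokinase activity via plasminogen activation per viability signal from cell pellet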
T8 sequence (P10520 whole entry): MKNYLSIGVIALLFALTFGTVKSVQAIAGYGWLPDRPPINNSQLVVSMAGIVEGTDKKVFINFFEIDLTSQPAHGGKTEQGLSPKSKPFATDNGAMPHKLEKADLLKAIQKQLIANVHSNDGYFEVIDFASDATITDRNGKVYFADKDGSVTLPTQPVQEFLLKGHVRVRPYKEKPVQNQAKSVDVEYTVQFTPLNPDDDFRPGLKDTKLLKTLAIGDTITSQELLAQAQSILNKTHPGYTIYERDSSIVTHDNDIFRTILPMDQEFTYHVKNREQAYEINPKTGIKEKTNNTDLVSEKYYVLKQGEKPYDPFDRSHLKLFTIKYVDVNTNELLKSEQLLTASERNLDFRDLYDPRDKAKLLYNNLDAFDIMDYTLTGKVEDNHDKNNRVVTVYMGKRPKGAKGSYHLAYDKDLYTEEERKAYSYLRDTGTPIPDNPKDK

[19] = biological target: T7, Polyadenylate-binding protein 1; experiment: PABP1 MLLE–PAM2 interaction inhibitors, dose response, miRNA deadenylation inhibitor project, biochemical, fluorescence polarization, Cy5-PAM2 peptide, secondary (AID 602260); format: functional; conditions: read-out: IC50_Mean
Large T antigen = Large T antigen (Simian virus 40, UniProt P03070); format: functional, Betapolyomavirus macacae;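 also: Confirmatory-stage PubChem screen for compounds that inhibit SV40 T antigen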
Chain of Large T antigen (P03070 whole entry): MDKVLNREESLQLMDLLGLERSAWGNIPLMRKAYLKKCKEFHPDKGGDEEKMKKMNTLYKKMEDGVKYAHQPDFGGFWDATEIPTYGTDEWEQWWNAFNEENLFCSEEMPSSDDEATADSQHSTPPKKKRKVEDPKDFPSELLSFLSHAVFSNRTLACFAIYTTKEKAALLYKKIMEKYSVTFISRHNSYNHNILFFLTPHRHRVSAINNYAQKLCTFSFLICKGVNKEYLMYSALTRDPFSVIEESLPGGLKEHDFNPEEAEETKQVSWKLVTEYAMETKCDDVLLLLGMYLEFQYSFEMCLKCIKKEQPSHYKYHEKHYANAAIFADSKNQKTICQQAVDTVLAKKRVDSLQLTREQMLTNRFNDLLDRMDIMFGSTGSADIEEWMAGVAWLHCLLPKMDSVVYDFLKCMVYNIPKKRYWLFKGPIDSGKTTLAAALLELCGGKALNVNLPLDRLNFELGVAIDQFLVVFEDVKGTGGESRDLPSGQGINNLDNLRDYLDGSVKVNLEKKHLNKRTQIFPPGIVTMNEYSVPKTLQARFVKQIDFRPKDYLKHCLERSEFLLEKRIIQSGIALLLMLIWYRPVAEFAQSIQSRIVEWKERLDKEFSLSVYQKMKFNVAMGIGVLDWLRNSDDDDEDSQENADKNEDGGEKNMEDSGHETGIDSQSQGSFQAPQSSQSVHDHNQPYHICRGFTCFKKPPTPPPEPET

[20] = biological target: T5, Mannose-6-phosphate isomerase; experiment: human PMI inhibitors, high substrate, primary screen, biochemical, fluorescence intensity, high mannose 6-phosphate (AID 1220)

T1 sequence (P63165 whole entry): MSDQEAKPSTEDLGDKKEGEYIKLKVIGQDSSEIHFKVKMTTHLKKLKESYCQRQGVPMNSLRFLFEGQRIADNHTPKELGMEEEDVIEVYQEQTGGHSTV

CCCCCCCCCCCCCCCC[n+]1cccc2ccccc21
IC50 [1]: 8.86 µM (active) | EC50 [2]: 0.295 µM (active) | IC50 [3]: 5.71 µM (active) | EC50 [4]: 0.17 µM (active) | AC50 [5]: 2.87 µM (active) | AC50 [6]: 3.67 µM (active) | IC50 [7]: 4.32 µM (active) | IC50 [8]: > 66.6 µM (inactive)

Cc1cc(NC(=O)c2ccc(N3C(=O)C4C5C=CC(C5)C4C3=O)cc2)no1 (configuration not stated)
IC50 [9]: > 100 µM (inactive)

CC1=NN(c2ccccc2)C(=O)/C1=C/c1cc2ccccc2[nH]1
AC50 [10]: 19.2 µM (active) | EC50 (Protein RecA): 10.9 µM (active) | Absolute IC50 (XBP1) (X-box-binding protein 1): 10 µM

O=c1c2ccc(F)cc2sn1-c1cc(Cl)cc(Cl)c1
IC50 [11]: > 100 µM (inactive) | IC50 [12]: > 50 µM (inactive) | IC50 (Phosphomannomutase 2): > 100 µM (inactive)

O=C(Cn1sc2ccccc2c1=O)NC12CC3CC(CC(C3)C1)C2
EC50 [2]: 30.2 µM (active) | IC50 [12]: > 50 µM (inactive) | EC50 [13]: 0.637 µM (active) | IC50 (Phosphomannomutase 2): > 100 µM (inactive) | IC50 [14]: > 50 µM (not active) | IC50 [15]: > 100 µM (inactive) | IC50 [16]: > 66 µM (inactive) | IC50 [17]: 6.94 µM (active) | IC50 [18]: 13.5 µM (active) | EC50 (Streptococcus): 7.2 µM (active) | EC50 (Streptokinase A): > 150 µM (not active) | IC50 [3]: > 64 µM (inactive) | EC50 [4]: 22.4 µM (active) | IC50 [19]: > 66 µM (inactive) | IC50 (Large T antigen): 14 µM (active) | IC50 [20]: > 50 µM (not active)

O=C(CSc1nc(-c2cccs2)cc(C(F)(F)F)n1)NCc1ccccc1
IC50 [9]: > 100 µM (inactive)
